{"source": "patent US20210401834A1", "about": "(IMBRIA PHARMACEUTICALS, INC., priority 2020, published 2021)", "key": {"[1]": {"assay": "Phase 1 FIH study, single-dose MR part: safety and tolerability", "assay_type": "in vivo, human", "quoted_text": "(§1) AEs were recorded from (first) admission until completion of the follow-up visit. Any clinically significant observations in results of clinical laboratory, 12-lead ECGs, vital signs, or physical examinations were recorded as AEs.\n(§2) A treatment-emergent AE (TEAE) was defined as any event not present prior to (the first) administration of the study drug or any event already present that worsened in either severity or frequency following exposure to the study drug.\n(§3) The severity of the AEs was rated as mild, moderate, or severe; the relationship between the AEs and the study drug was indicated as none, unlikely, possibly, likely, or definitely. Adverse events assessed as possibly, likely, or definitely were considered related to the study drug; AEs assessed as none or unlikely were considered not related to the study drug."}, "[2]": {"assay": "Phase 1 FIH study, multiple-dose MR part: safety and tolerability", "assay_type": "in vivo, human", "quoted_text": "as §1, §2, §3"}, "[3]": {"assay": "BCS classification from solubility and permeability", "excerpt": "CV-8972 can therefore be considered as BCS Class 1 per se, but the pre-systemic metabolism to CV-8814 and possibly other metabolites may complicate and impact the actual biopharmaceutical absorption profile found in humans."}, "[4]": {"assay": "Phase 1 FIH study: overall safety (vital signs, 12-lead ECG)", "assay_type": "in vivo, human", "details": "after administration as the MR formulations, healthy subjects", "procedure": "These assessments were made using an automated device. Body temperature and respiratory rate were measured subsequently.\nSafety and tolerability were assessed through AEs, clinical laboratory, vital signs, ECGs, continuous cardiac monitoring (telemetry), and physical examination findings, and any other parameter that was relevant for safety assessment."}, "[5]": {"assay": "Decomposition kinetics of CV-8972 in media simulating the GI tract, 37° C., 0.2 mg/mL (HPLC)", "assay_type": "physicochemical", "procedure": "The solution stability of CV-8972 was evaluated in multiple media currently used to simulate dissolution and stability conditions in the various sections of the GI tract. As CV-8972 will be subject to hydrolysis as it is dissolving in the GI tract, it will be important to understand these kinetics in terms of designing instant and controlled-release formulations. HPLC methods were used to perform these assessments."}, "[6]": {"assay": "pH stability profile of a 1 mg/mL solution of CV-8972 at 23° C.", "assay_type": "physicochemical", "procedure": "The pH stability profile is summarized and shown in Table 2 for a 1 mg/mL solution of CV-8972 at 23° C.\nThe hydrolysis proceeds via the first step shown in FIG. 1, as Nicotinic acid and CV-8814 are the only decomposition products generated. The optimal pH for solution stability appears to be around pH 5-5.1 for a 1 mg/mL solution with acid-catalyzed hydrolysis increasing at pH values less than 5.0 and base-catalyzed hydrolysis increasing above pH 5.0."}, "[7]": {"details": "human, in vivo, 200 mg", "excerpt": "The MR formulation of IMB-1018972 to be administered on Day 13 under fed conditions was 1 of the 4 MR formulations administered on Days 1, 4, 7, and 10 under fasted conditions.\nThe effect of food on the relative oral bioavailability of IMB-1018972 following a single oral administration was explored. This occurred in the single-dose MR part where subjects received the same dose, first under fasted conditions and then under fed conditions."}, "[8]": {"details": "human, in vivo, 150 mg", "quoted_text": "The blood samples were taken via an indwelling intravenous catheter or by direct venipuncture. The exact times of blood sampling were recorded in the eCRF.\nThe subjects were instructed to empty their bladders completely before study drug administration and at the end of each collection interval. A blank urine sample was collected within 12 hours prior to study drug administration. The exact times of urine collection and the urine weight of the entire interval (before and after addition of any urine stabilizers, if used) were recorded in the eCRF."}}, "note": "Like-named read-outs stand apart in the source and are kept apart here.", "data": [{"smiles": "COc1ccc(CN2CCN(CCOC(=O)c3cccnc3)CC2)c(OC)c1OC", "note": "[CV-8972, 2-[4-[(2,3,4-trimethoxyphenyl)methyl]piperazin-1-yl]ethyl pyridine-3-carboxylate]", "values": [{"measurement": "number of TEAEs of mild severity", "setting": "[1]; of 37 TEAEs", "result": "Thirty-six"}, {"measurement": "number of TEAEs of moderate severity", "setting": "[1]; of 37 TEAEs", "result": 1}, {"measurement": "tolerability", "setting": "[1]; single doses of 50 mg and 200 mg MR formulations (4-hour, 8-hour) fasted, 200 mg 8-hour MR fed, healthy subjects", "result": "well tolerated"}, {"measurement": "subjects with TEAEs considered not related to the study drug", "setting": "[1]; single-dose MR part", "result": 83.3, "unit": "%"}, {"measurement": "subjects with TEAEs considered related to the study drug", "setting": "[1]; single-dose MR part", "result": 33.3, "unit": "%"}, {"measurement": "subjects with TEAEs, SOC gastrointestinal disorders", "setting": "[1]; single-dose MR part", "result": 33.3, "unit": "%"}, {"measurement": "subjects with TEAEs, SOC general disorders and administration site conditions", "setting": "[1]; single-dose MR part", "result": 58.3, "unit": "%"}, {"measurement": "subjects with TEAEs, SOC nervous system disorders", "setting": "[1]; single-dose MR part", "result": 58.3, "unit": "%"}, {"measurement": "subjects with drug-related TEAEs of pollakiuria", "setting": "[1]; single-dose MR part", "result": 16.7, "unit": "%"}, {"measurement": "subjects reporting TEAEs", "setting": "[1]; single-dose MR part, 12 subjects", "result": 83.3, "unit": "%"}, {"measurement": "subjects reporting TEAEs", "setting": "[2]; 200 mg 8-hour MR formulation q12h fed, 5 days, 12 subjects", "result": 100, "unit": "%"}, {"measurement": "number of drug-related TEAEs of flushing (vascular disorders)", "setting": "[2]; multiple-dose MR part", "result": 2}, {"measurement": "subjects with TEAEs considered not related to the study drug", "setting": "[2]; multiple-dose MR part", "result": 75, "unit": "%"}, {"measurement": "subjects with TEAEs considered related to the study drug", "setting": "[2]; multiple-dose MR part", "result": 58.3, "unit": "%"}, {"measurement": "subjects with TEAEs, SOC gastrointestinal disorders", "setting": "[2]; multiple-dose MR part", "result": 41.7, "unit": "%"}, {"measurement": "subjects with TEAEs, SOC general disorders and administration site conditions", "setting": "[2]; multiple-dose MR part", "result": 33.3, "unit": "%"}, {"measurement": "subjects with TEAEs, SOC musculoskeletal and connective tissue disorders", "setting": "[2]; multiple-dose MR part", "result": 33.3, "unit": "%"}, {"measurement": "subjects with TEAEs, SOC nervous system disorders", "setting": "[2]; multiple-dose MR part", "result": 58.3, "unit": "%"}, {"measurement": "subjects with TEAEs, SOC renal and urinary disorders (pollakiuria)", "setting": "[2]; multiple-dose MR part", "result": 33.3, "unit": "%"}, {"measurement": "subjects with drug-related TEAEs of flushing (vascular disorders)", "setting": "[2]; multiple-dose MR part", "result": 16.7, "unit": "%"}, {"measurement": "subjects with drug-related TEAEs of pollakiuria", "setting": "[2]; multiple-dose MR part", "result": 33.3, "unit": "%"}, {"measurement": "subjects with drug-related TEAEs, nervous system disorders", "setting": "[2]; multiple-dose MR part", "result": 16.7, "unit": "%"}, {"measurement": "BCS class", "setting": "[3]", "result": "BCS Class 1"}, {"measurement": "hemodynamic changes and QTc-interval", "setting": "[4]", "result": "no findings of hemodynamic changes, nor changes in the QTc-interval"}, {"measurement": "half-life at 0.2 mg/mL", "setting": "[5]; 0.1M HCl, pH 1, 0.1M HCl, pH 1.0, no surfactants", "result": 3.13, "unit": "h"}, {"measurement": "half-life at 0.2 mg/mL", "setting": "[5]; FaSSGF, pH 1.6, FaSSGF, pH 1.6", "result": 48.5, "unit": "h"}, {"measurement": "half-life at 0.2 mg/mL", "setting": "[5]; FaSSIF, pH 6.5, FaSSIF, pH 6.5", "result": 13.5, "unit": "h"}, {"measurement": "half-life at 0.2 mg/mL", "setting": "[5]; FeSSIF (medium simulating the GI tract), pH 5.8, FeSSIF, pH 5.8", "result": 99.6, "unit": "h"}, {"measurement": "half-life at 0.2 mg/mL", "setting": "[5]; pH 6, BiCarb adj (0.1M HCl neutralized with sodium bicarbonate), pH 6-8.2", "result": 1.52, "unit": "h"}, {"measurement": "half-life at 1 mg/mL", "setting": "[6]; 20 mM ammonium acetate buffer, pH 5.05, 20 mM Am. Acetate", "result": 658, "unit": "h"}, {"measurement": "half-life at 1 mg/mL", "setting": "[6]; 20 mM phosphate buffer, pH 3.52, 20 mM Phos", "result": 254, "unit": "h"}, {"measurement": "half-life at 1 mg/mL", "setting": "[6]; 20 mM phosphate buffer, pH 6.5, 20 mM Phos", "result": 61.9, "unit": "h"}, {"measurement": "half-life at 1 mg/mL", "setting": "[6]; 20 mM phosphate buffer, pH 6.88, 20 mM Phos", "result": 33.6, "unit": "h"}, {"measurement": "1st order Kobs", "setting": "[6]; pH 2.74, Water", "result": 0.00516, "unit": "hr − 1"}, {"measurement": "half-life at 1 mg/mL", "setting": "[6]; pH 2.74, Water", "result": 134, "unit": "h"}, {"measurement": "1st order Kobs", "setting": "[6]; pH 3.52, 20 mM Phos", "result": 0.00273, "unit": "hr − 1"}, {"measurement": "1st order Kobs", "setting": "[6]; pH 5.05, 20 mM Am. Acetate", "result": 0.00105, "unit": "hr − 1"}, {"measurement": "1st order Kobs", "setting": "[6]; pH 5.64, 20 mM Phos", "result": 0.00248, "unit": "hr − 1"}, {"measurement": "1st order Kobs", "setting": "[6]; pH 6.5, 20 mM Phos", "result": 0.01119, "unit": "hr − 1"}, {"measurement": "1st order Kobs", "setting": "[6]; pH 6.88, 20 mM Phos", "result": 0.02064, "unit": "hr − 1"}, {"measurement": "half-life at 1 mg/mL", "setting": "[6]; phosphate buffer, pH 5.64, 20 mM Phos", "result": 280, "unit": "h"}]}, {"smiles": "COc1ccc(CN2CCNCC2)c(OC)c1OC", "note": "[trimetazidine, reference compound]", "values": [{"measurement": "effect of food on exposure parameters Cmax, AUC0-t and AUC0-inf", "setting": "[7]", "result": "No evidence for an effect of food"}, {"measurement": "food effect estimate for AUC0-inf (ratio of geometric means fed/fasted)", "setting": "[7]", "result": 0.97}, {"measurement": "food effect estimate for AUC0-t (ratio of geometric means fed/fasted)", "setting": "[7]", "result": 0.99}, {"measurement": "food effect estimate for Cmax (ratio of geometric means fed/fasted)", "setting": "[7]", "result": 1.10}, {"measurement": "effect of food on exposure parameters Cmax, AUC0-t and AUC0-inf", "setting": "[8]", "result": "No evidence for an effect of food"}]}, {"smiles": "COc1ccc(CN2CCN(CCO)CC2)c(OC)c1OC", "note": "[CV-8814, 2-[4-[(2,3,4-trimethoxyphenyl)methyl]piperazin-1-yl]ethanol]", "values": [{"measurement": "Cmax higher under fed relative to fasted conditions", "setting": "[7]", "result": "approximately 42%"}, {"measurement": "effect of food on exposure parameters AUC0-t and AUC0-inf", "setting": "[7]", "result": "No evidence for an effect of food"}, {"measurement": "food effect estimate for AUC0-inf (ratio of geometric means fed/fasted)", "setting": "[7]", "result": 1.16}, {"measurement": "food effect estimate for AUC0-t (ratio of geometric means fed/fasted)", "setting": "[7]", "result": 1.16}, {"measurement": "food effect estimate for Cmax (ratio of geometric means fed/fasted)", "setting": "[7]", "result": 1.42}, {"measurement": "Cmax lower under fed relative to fasted conditions", "setting": "[8]", "result": "approximately 36%"}, {"measurement": "effect of food on exposure parameters AUC0-t and AUC0-inf", "setting": "[8]", "result": "No evidence for an effect of food"}]}]}
